From patent US8168651B2, “Protein kinase modulators” (Cylene Pharmaceuticals, Inc., priority 2008, dated 2012)

How the values were obtained:
[1] = tested on: HCT-116 human colorectal carcinoma cells; assay: Cell-proliferation assay using Alamar Blue dye; type: cell-based; conditions: Homo sapiens, HCT-116, second HCT-116 column (c8); read-out: HCT-116 (uM) cell proliferation modulatory activity;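 also: cells exposed to compound for about 4 days, then Alamar Blue added and dye fluorescence read after about 4 h, compared with medium-only control wells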
MV-4-11 = assay: Cell proliferation modulatory activity, MV-4-11; type: cell-based; conditions: Homo sapiens, MV4-11; MV-4-11 cells
recombinant human CK2 = recombinant human CK2 (Homo sapiens (Human), UniProt P68400); assay: CK2 assay (cell-free, 33P-ATP filter plate); type: biochemical; conditions: 500 nM compound, cell-free assay; read-out: CK2: % inh 500 nM
recombinant human CK2, sequence (P68400 whole entry): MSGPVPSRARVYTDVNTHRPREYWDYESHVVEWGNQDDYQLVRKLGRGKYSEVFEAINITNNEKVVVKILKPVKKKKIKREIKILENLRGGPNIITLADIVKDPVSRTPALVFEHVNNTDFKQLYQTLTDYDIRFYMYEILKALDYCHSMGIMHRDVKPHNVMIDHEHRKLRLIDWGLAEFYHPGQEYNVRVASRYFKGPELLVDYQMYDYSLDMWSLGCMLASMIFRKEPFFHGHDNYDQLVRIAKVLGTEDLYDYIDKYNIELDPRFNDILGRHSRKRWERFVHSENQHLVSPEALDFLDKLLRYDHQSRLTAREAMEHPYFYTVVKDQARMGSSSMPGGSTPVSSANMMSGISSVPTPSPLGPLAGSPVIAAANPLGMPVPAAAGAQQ
recombinant human CK2, sequence (P67870 whole entry partner): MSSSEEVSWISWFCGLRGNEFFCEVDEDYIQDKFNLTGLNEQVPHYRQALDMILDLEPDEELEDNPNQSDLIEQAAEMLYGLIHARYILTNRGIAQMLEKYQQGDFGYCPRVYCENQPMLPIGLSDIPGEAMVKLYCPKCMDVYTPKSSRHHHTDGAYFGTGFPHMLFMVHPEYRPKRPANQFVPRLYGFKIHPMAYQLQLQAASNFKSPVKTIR

K-562 = assay: Cell proliferation modulatory activity, K-562; type: cell-based; conditions: Homo sapiens, K562; K-562 cells
recombinant human PIM1 = recombinant human PIM1 (Homo sapiens (Human), UniProt P11309); assay: PIM-1 kinase activity in cell-free in vitro assay; type: biochemical; conditions: cell-free assay; for inhibition at 0.5 µM: 500 nM compound, read-out: PIM-1: % inh 500 nM
recombinant human PIM1, sequence (P11309 whole entry): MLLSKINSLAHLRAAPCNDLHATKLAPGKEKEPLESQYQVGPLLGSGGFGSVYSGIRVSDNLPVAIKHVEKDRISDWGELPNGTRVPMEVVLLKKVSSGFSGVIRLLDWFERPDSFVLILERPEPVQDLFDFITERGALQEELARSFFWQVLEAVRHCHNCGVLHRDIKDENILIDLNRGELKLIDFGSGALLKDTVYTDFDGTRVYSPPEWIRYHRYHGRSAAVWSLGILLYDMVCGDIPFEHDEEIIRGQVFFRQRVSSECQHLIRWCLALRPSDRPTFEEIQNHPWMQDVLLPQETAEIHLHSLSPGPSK

Compound | IC50 [1] [µM] | IC50 (MV-4-11) [µM] | inhibition at 0.5 µM (recombinant human CK2) [%] | IC50 (K-562) [µM] | inhibition at 0.5 µM (recombinant human PIM1) [%] | IC50 (recombinant human PIM1) [µM]
N#Cc1ccc2c(c1)nc(NCCn1ccnc1)c1ccsc12 | > 10 | > 10 | -14.9 | > 10 | -0.12 | –
CN(CCN1CCCC1)c1nc2cc(C#N)ccc2c2sccc12 | 1.41 | 1.84 | -20.3 | 3.04 | -3.97 | –
Cc1nccn1CCNc1nc2cc(-c3nnn[nH]3)ccc2c2sccc12 | > 10 | > 10 | 62.1 | > 10 | 81.5 | 0.119
N#Cc1ccc2c(c1)nc(N1CCC(N3CCOCC3)CC1)c1ccsc12 | > 10 | > 10 | -34.7 | > 10 | 0.408 | –
CN1CCCC(Nc2nc3cc(C#N)ccc3c3sccc23)C1 (stereo not drawn) | 1.42 | 3.23 | -17.5 | 5.06 | 20.8 | –
N#Cc1ccc2c(c1)nc(NCc1ccc(C(N)=O)cc1)c1ccsc12 | > 10 | > 10 | -4.69 | > 10 | -23.8 | –
CN(C)CCCNc1nc2cc(C#N)ccc2c2sccc12 | 3.37 | 7.81 | -30.5 | > 10 | 23.8 | –
CN(C)CCCN(C)c1nc2cc(C#N)ccc2c2sccc12 | 3.92 | 3.55 | -4.72 | 7.98 | 15.3 | –
CN(C)CCN(C)c1nc2cc(C#N)ccc2c2sccc12 | 0.511 | 1.07 | 64.1 | 1.87 | -3.15 | –
CC1(C)CC(Nc2nc3cc(C#N)ccc3c3sccc23)CC(C)(C)N1 | 6.75 | 9.88 | -3.98 | > 10 | -1.38 | –
CN(C)C1CCN(c2nc3cc(C#N)ccc3c3sccc23)CC1 | 6.57 | 6.05 | -0.522 | > 10 | 20.3 | –
CN1CCCC1CNc1nc2cc(C#N)ccc2c2sccc12 (stereo not drawn) | 4.41 | 3.74 | 0.724 | 6.5 | 8.14 | –
N#Cc1ccc2c(c1)nc(N1CCC(N3CCCC3)CC1)c1ccsc12 | 5.66 | 3.36 | -6.67 | 6.94 | 35.7 | –
N#Cc1ccc2c(c1)nc(NCc1ccccn1)c1ccsc12 | > 10 | > 10 | 100 | > 10 | 2.17 | –
N#Cc1ccc2c(c1)nc(NCCc1ccccn1)c1ccsc12 | > 10 | > 10 | 5.18 | > 10 | 10.6 | –
CN(CCc1ccccn1)c1nc2cc(C#N)ccc2c2sccc12 | > 10 | > 10 | 44.5 | > 10 | 19.4 | –
N#Cc1ccc2c(c1)nc(N1CCC(c3cccnc3)C1)c1ccsc12 (stereo not drawn) | > 10 | > 10 | 0.642 | > 10 | -11.2 | –
N#Cc1ccc2c(c1)nc(N1CCN(c3ccccn3)CC1)c1ccsc12 | > 10 | > 10 | 7.66 | > 10 | 11 | –
N#Cc1ccc2c(c1)nc(N1CCNC(=O)C1)c1ccsc12 | > 10 | > 10 | -4.51 | > 10 | 8.04 | –
CC(=O)NC1CCN(c2nc3cc(C#N)ccc3c3sccc23)C1 (stereo not drawn) | > 10 | > 10 | -8.88 | > 10 | 5.75 | –
CC(=O)N1CCN(c2nc3cc(C#N)ccc3c3sccc23)CC1 | > 10 | > 10 | 3.48 | > 10 | 7.13 | –
N#Cc1ccc2c(c1)nc(N1CCC[C@H]1C(N)=O)c1ccsc12 | > 10 | > 10 | 4.42 | > 10 | 12.2 | –
CN1CCN(c2nc3cc(C#N)ccc3c3sccc23)CC1 | 8.77 | 4.79 | 24.3 | > 10 | 15.8 | –
CN1CC(Nc2nc3cc(C#N)ccc3c3sccc23)C1 | 0.437 | 0.882 | 20.6 | > 10 | 0.859 | –
CC(C)(C)OC(=O)N1CCC(Nc2nc3cc(C#N)ccc3c3sccc23)CC1 | > 10 | > 10 | 1.98 | > 10 | 2.44 | –
N#Cc1ccc2c(c1)nc(NC1CCNCC1)c1ccsc12 | 3.15 | 1.26 | 27.1 | > 10 | 70.1 | 0.416
